US20040047863A1, “Combination therapy using a TNF binding protein for treating TNF-mediated diseases” (Amgen Inc., priority 1996, published 2004)

Tests used:
adjuvant arthritic rats [1] = experiment: Adjuvant-induced arthritis model, combination of c105 sTNFR-I dumbbell and methotrexate (Example 1); format: in vivo, rat
Method: An animal model of rheumatoid arthritis induced by an adjuvant was used to investigate the combination therapy of a TNF binding protein and methotrexate in male Lewis rats (3-7/group) weighing at least 200 g.
On day-0, all rats were injected with 100 μl of Freunds Complete Adjuvant (Sigma Chemical Co., St. Louis, Mo.) to which a synthetic adjuvant, N,N-dioctyldecyldecyl-N′, N-bis(2-hydroxy-ethyl) propanediamine, 50 mg/ml, was added. On days 0-14 methotrexate in 1% carboxymethylcellulose (Sigma) was orally administered daily (0.06 mg/kg) to two groups of rats. On days 8, 10, 12, and 14, E. coli-derived c105 sTNFR-I dimerized with PEG-20,000-bis-vinyl sulfone (c105 sTNFR-I dumbbell; prepared generally in accordance with the teachings of WO 95/34326) formulated in pharmaceutical composition (34 mM NaCl, 10 mM sodium phosphate, 4% sorbitol (w/v) in water; pH 6.5) was administered by subcutaneous (SC) injection (3 mg/kg) to one group of rats being treated with both Freunds Complete Adjuvant and methotrexate and to another group of rats being treated with Freunds Complete Adjuvant alone.
Body weights were taken on day 0 and every other day from day 9 to termination on day 15. Caliper measurements and clinical scoring were done on day 9 and every other day until termination. At this time animal's body, paw and spleen weights were determined.

adjuvant arthritic rats [2] = experiment: Adjuvant-induced arthritis model, combination of sTNFR-II Fc and methotrexate (Example 2); format: in vivo, rat
Method: An animal model of rheumatoid arthritis induced by an adjuvant was used to investigate the combination therapy of a TNF binding protein and methotrexate in male Lewis rats (5-7/group) weighing at least 200 g.
On day-0, all rats were injected with 100 μl of Freunds Complete Adjuvant (Sigma Chemical Co., St. Louis, Mo.) to which a synthetic adjuvant, N,N-dioctyldecyldecyl-N′, N-bis(2-hydroxy-ethyl) propanediamine, 50 mg/ml, was added. On day 0-14 methotrexate in 1% carboxymethylcellulose (Sigma) was orally administered daily (0.06 mg/kg) to two groups of rats. On days 9, 11, and 13, CHO-derived sTNFR-II/hIgG1 fusion protein (sTNFR-II Fc; prepared generally in accordance with the teachings of EP 418 014) formulated in pharmaceutical composition (34 mM NaCl, 10 mM sodium phosphate, 4% sorbitol (w/v) in water; pH 6.5) was administered by subcutaneous infusion (18 mg/kg) to one group of rats being treated with both Freunds Complete Adjuvant and methotrexate and to another group of rats being treated with Freunds Complete Adjuvant alone.
Body weights were taken on day 0 and every other day from day 9 to termination on day 15. Caliper measurements and clinical scoring were done daily from day 9 until termination on day 15. At this time animal's body, paw and spleen weights were determined.

[3] = test system: MRL-1pr/1pr autoimmune mice challenged with LPS/D-GalNH2; experiment: LPS/D-Galactosamine induced lethality model (Example 3); format: in vivo, mouse; conditions: N=6
Method: The combination immunotherapeutic effects of c105 STNFR-I dumbbell and fas fusion protein were assessed using a mouse model of D-Galactosamine (D-GalNH2) induced lethality. The D-galactosamine (D-GalNH2)/Lipopolysaccharide (LPS) model (Mountz et al., J. Immunology, 155:4829-4837). In this model, MRL-1pr/1pr autoimmune mice are administered D-GalNH2 with bacterial endotoxin (LPS), and lethality is observed through +96 hours post challenge.
After overnight fasting, 6-8 week old female MRL-1pr/1pr mice (Jackson Laboratory, Bar Harbor, Me.) (5/7/group) were cannulated with jugular catheters and allowed to recover for several days. They were then placed in infusion cages and acclimated for a week prior initiating saline infusion.
At hour-0, all mice were injected intraperitoneally with 31 micrograms of D-GalNH2 (Sigma) suspended in Hank's Balanced Salt Solution (Gibco BRL) (120 micrograms/ml); and lipopolysaccharide (LPS) from E. coli Serotype 0127:B8 (Sigma) in sterile, endotoxin-free phosphate buffered saline (PBS) (6 micrograms/mouse).
At 0-hour-+2 hours post-challenge, fas fusion protein formulated in a pharmaceutical composition (Phosphate buffered saline (Gibco BRL, Grand Island, N.Y.)) was administered intravenously in serial 2-fold dilutions (microgram/kg dosages) to two groups of mice. […]

[4] = final analysis (inhibition at termination, day 15), c105 sTNFR-I dumbbell 3 mg/kg SC, methotrexate 0.06 mg/kg oral daily
[5] = male Lewis rats, Freunds Complete Adjuvant, c105 sTNFR-I dumbbell 3 mg/kg SC days 8, 10, 12, 14, methotrexate 0.06 mg/kg oral daily days 0-14
[6] = male Lewis rats, Freunds Complete Adjuvant, c105 sTNFR-I dumbbell 3 mg/kg SC days 8, 10, 12, 14, methotrexate 0.06 mg/kg oral daily days 0-14, as reported with FIGS. 3 and 4
[7] = male Lewis rats, Freunds Complete Adjuvant, sTNFR-II Fc 18 mg/kg subcutaneous days 9, 11, 13, methotrexate 0.06 mg/kg oral daily days 0-14

| Molecule | inhibition of body weight change (adjuvant arthritic rats [1]; [4]) [%] | inhibition of paw inflammation (terminal paw weights) (adjuvant arthritic rats [1]; [4]) [%] | inhibition of splenomegaly (terminal spleen weights) (adjuvant arthritic rats [1]; [4]) [%] | inhibition of paw swelling (area under the curve-AUC) (adjuvant arthritic rats [1]; [5]) | inhibition of body weight change (adjuvant arthritic rats [1]; [6]) | inhibition of splenomegaly / spleen weight (adjuvant arthritic rats [1]; [6]) | inhibition of paw inflammation (terminal paw weights) (adjuvant arthritic rats [2]; final analysis (inhibition at termination, day 15), sTNFR-II Fc 18 mg/kg, methotrexate 0.06 mg/kg oral daily) [%] | inhibition of body weight change (adjuvant arthritic rats [2]; [7]) [%] | inhibition of paw swelling (area under the curve—AUC) (adjuvant arthritic rats [2]; [7]) [%] | inhibition of splenomegaly / spleen weight (adjuvant arthritic rats [2]; [7]) [%] | survival ([3]; c105 sTNFR-I dumbbell 100 micrograms/kg I.V., time=−1 hour before challenge, P<0.01 vs saline control) [%] | protection ([3]; sub-optimal dose 25 micrograms/kg, through +96 hours after challenge) [%] |
| --- | --- | --- | --- | --- | --- | --- | --- | --- | --- | --- | --- | --- |
| N-[4-[(2,4diamino-6-pteridinyl)methylamino]benzoyl]-L-glutamic acid [methotrexate] | 3 | 3.9 | 8.5 | 26% | 3% | no inhibition | 74 | 64 | 66 | 74 |  |  |
| c105 sTNFR-I dumbbell: E. coli-derived c105 sTNFR-I dimerized with PEG-20,000-bis-vinyl sulfone (protein, UniProt P19438 30-211, looked up, extracellular domain c105 truncation; PEG-20000-bis-vinyl sulfone dimer, E. coli-derived c105 sTNFR-I dimerized with PEG-20,000-bis-vinyl sulfone) extracellular domain: LVPHLGDREKRDSVCPQGKYIHPQNNSICCTKCHKGTYLYNDCPGPGQDTDCRECESGSFTASENHLRHCLSCSKCRKEMGQVEISSCTVDRDTVCGCRKNQYRHYWSENLFQCFNCSLCLNGTVHLSCQEKQNTVCTCHAGFFLRENECVSCSNCKKSLECTKLCLPQIENVKGTEDSGTT | 13.2 | 10.9 | 30.4 | about 42% | about 13.2% | no significant benefit |  |  |  |  | 100 | −35 |
